{
  "source": "patent US20230073755A1",
  "about": "“USE OF IGF1 IN COMBINATION WITH IGFEC24 IN PREPARATION OF MEDICINE FOR PROMOTING TISSUE REPAIR AND REGENERATION” (Chongqing University, priority 2020, published 2023)",
  "format_in_all_cases": "in vivo",
  "key": {"cardiomyocytes": {"tested_on": "cardiomyocytes", "assay": "Cardiomyocyte proliferation effect assay (Edu), 13-month-old C57 mice", "settings": "aged (13-month-old) female mice; IGF1-24 100 μg/kg for 7 days; PBS group 0.5%; FIG. 3", "procedure": "(§1) Female 13-month-old mice were divided into 2 groups, PBS group and IGF1-24 group, with 6 mice in each group, and the mice in each group were distinguished by ear tags for subsequent protein injection according to the different body weights of the mice. The mice in each group were injected with PBS and IGF1-24 for 7 consecutive days, and the recombinant protein IGF1-24 was injected at 100 μg/kg. After seven days of protein injection, Edu solution at a concentration of […] was injected intraperitoneally for seven consecutive days, so that the final total dose of each mouse reached 50 mg/kg. […]"}, "neuronal cells [1]": {"tested_on": "neuronal cells", "assay": "Neuroproliferation effect (Edu / DCX immunofluorescence, hippocampal dentate gyrus), adult female SD rats", "settings": "FIG. 4", "procedure": "In certain embodiments, adult female SD rats were divided into five groups: PBS group, IGF1 group, IGF1Ec group, IGF1-24 group, and IGF1+IGF1Ec24 peptide group, with three rats in each group. The rats in each group were distinguished by ear clipping for subsequent protein injection according to the different body weights of the rats.\nThe rats in each group were injected with PBS, IGF1, IGF1Ec24 peptide, IGF1Ec and IGF1-24 for 7 consecutive days. Recombinant protein IGF1-24 was injected at 100 μg/kg, and the injection of the remaining proteins in each group was converted according to the molar amount of IGF1-24 injection as follows: 90 μg/kg for IGF1, 8.9 μg/kg for IGF1Ec24 peptide, 104 μg/kg for IGF1Ec.\nAfter seven days of protein injection, the intraperitoneal injection of Edu solution at a concentration of 2.5 mg/kg was performed for seven days, so that the final total dose of each rat reached 50 mg/kg. […]\nThe microscope was selected with a 20× lens to observe the fluorescence staining of the dentate gyrus in the whole hippocampal region; the number of immature neurons and the number of newly proliferating neuronal cells in the dentate gyrus of the hippocampus were recorded."}, "neuronal cells [2]": {"tested_on": "neuronal cells", "assay": "Neuroproliferation and neural differentiation (Edu / DCX, hippocampal dentate gyrus), 13-month-old C57 mice", "procedure": "as §1\nRemove frozen sections from −20° C. and restore to room temperature; wash 3 times 10 min/time with PBS; permeabilize sections in 0.5% Triton for 30 min; wash 3 times 10 min/time with PBS; draw circles around the tissue with an immunohistochemistry pen and add 5% BSA dropwise for 1 h; aspirate 5% BSA and incubate at 4° C. with double cortin DCX primary antibody (1:500) dropwise overnight; PBS wash 3 times for 10 min/time; incubate FITC secondary antibody for 1 h; PBS wash 3 times for 10 min/time; incubate Edu dye for 1 h; PBS wash 3 times for 10 min/time; incubate DAPI for 10 min; PBS wash 3 times for 10 min/time; observe fluorescence under fluorescence microscope. […]"}},
  "data": [
    {"substance": "IGF1-24: 97 amino acids: amino-terminal 70 identical to IGF1, carboxyl-terminal 24 identical to IGFEc24 peptide, joined by three Gly linkers (SEQ ID NO: 4)", "values": [
      {"measurement": "number of Edu-positive cardiomyocytes", "setting": "cardiomyocytes", "result": 1.5, "unit": "%"},
      {"measurement": "proliferation of neuronal cells", "setting": "neuronal cells [1]", "result": 10, "unit": "%"},
      {"measurement": "immature neuronal cells (neural differentiation assay)", "setting": "neuronal cells [2]; PBS group 0.68%, FIG. 7", "result": 1.01, "unit": "%"},
      {"measurement": "proliferation of neuronal cells", "setting": "neuronal cells [2]; hippocampal dentate gyrus, PBS group 0.24%, FIG. 5-6", "result": 0.47, "unit": "%"}
    ]}
  ]
}
